Source: patent US8530667B2, “Herbicides” (Syngenta Limited, priority 2007, dated 2013)

Tests used:
Format in all cases: in vivo
Setaria faberi (SETFA) [1] = test: Example B pre-emergence herbicidal activity, glasshouse pot test; conditions: 312 h, Rate 250 g/ha, evaluated after 13 days, read-out: Pre-Emergence Activity SETFA (100=total damage to plant; 0=no damage to plant)
Description: (§1) Seeds of a variety of test species were sown in standard soil in pots. After cultivation for one day (pre-emergence) or after 8 days cultivation (post-emergence) under controlled conditions in a glasshouse (at 24/16° C., day/night; 14 hours light; 65% humidity), the plants were sprayed with an aqueous spray solution derived from the formulation of the technical active ingredient in acetone/water (50:50) solution containing 0.5% Tween 20 (polyoxyethelyene sorbitan monolaurate, CAS RN 9005-64-5). The test plants were then grown in a glasshouse under controlled conditions in a glasshouse (at 24/16° C., day/night; 14 hours light; 65% humidity) and watered twice daily. After 13 days for pre and post-emergence, the test was evaluated (100=total damage to plant; 0=no damage to plant). Alopecurus myosuroides (ALOMY), Avena fatua (AVEFA), Setaria faberi (SETFA), Echinochloa crus-galli (ECHCG) and Amaranthus retoflexus (AMARE)

[2] = tested on: Alopecurus myosuroides (ALOMY); test: as above; conditions: 312 h, Rate 250 g/ha, evaluated after 13 days, read-out: Pre-Emergence Activity ALOMY (100=total damage to plant; 0=no damage to plant)
Description: as §1

[3] = tested on: Amaranthus retoflexus (AMARE); test: as above; conditions: Amaranthus retroflexus, 312 h, Rate 250 g/ha, evaluated after 13 days, read-out: Pre-Emergence Activity AMARE (100=total damage to plant; 0=no damage to plant)
Description: as §1

[4] = tested on: Echinochloa crus-galli (ECHCG); test: as above; conditions: 312 h, Rate 250 g/ha, evaluated after 13 days, read-out: Pre-Emergence Activity ECHCG (100=total damage to plant; 0=no damage to plant)
Description: as §1

Avena fatua (AVEFA) [5] = test: as above; conditions: 312 h, Rate 250 g/ha, evaluated after 13 days, read-out: Pre-Emergence Activity AVEFA (100=total damage to plant; 0=no damage to plant)
Description: as §1

Setaria faberi (SETFA) [6] = test: Example B post-emergence herbicidal activity, glasshouse pot test; conditions: 312 h, evaluated after 13 days, read-out: Post-emergence activity SETFA (100=total damage to plant; 0=no damage to plant); for pest or weed control at 250 g/ha: rate 250 g/ha; for pest or weed control at 1000 g/ha: rate 1000 g/ha
Description: as §1

[7] = tested on: Alopecurus myosuroides (ALOMY); test: as above; conditions: 312 h, evaluated after 13 days, read-out: Post-emergence activity ALOMY (100=total damage to plant; 0=no damage to plant); for pest or weed control at 250 g/ha: rate 250 g/ha; for pest or weed control at 1000 g/ha: rate 1000 g/ha
Description: as §1

[8] = tested on: Amaranthus retoflexus (AMARE); test: as above; conditions: Amaranthus retroflexus, 312 h, evaluated after 13 days, read-out: Post-emergence activity AMARE (100=total damage to plant; 0=no damage to plant); for pest or weed control at 250 g/ha: rate 250 g/ha; for pest or weed control at 1000 g/ha: rate 1000 g/ha
Description: as §1

[9] = tested on: Echinochloa crus-galli (ECHCG); test: as above; conditions: 312 h, evaluated after 13 days, read-out: Post-emergence activity ECHCG (100=total damage to plant; 0=no damage to plant); for pest or weed control at 250 g/ha: rate 250 g/ha; for pest or weed control at 1000 g/ha: rate 1000 g/ha
Description: as §1

Avena fatua (AVEFA) [10] = test: as above; conditions: 312 h, evaluated after 13 days, read-out: Post-emergence activity AVEFA (100=total damage to plant; 0=no damage to plant); for pest or weed control at 250 g/ha: rate 250 g/ha; for pest or weed control at 1000 g/ha: rate 1000 g/ha
Description: as §1

SMILES | pest or weed control at 250 g/ha (Setaria faberi (SETFA) [1]) | pest or weed control at 250 g/ha [2] | pest or weed control at 250 g/ha [3] | pest or weed control at 250 g/ha [4] | pest or weed control at 250 g/ha (Avena fatua (AVEFA) [5]) | pest or weed control at 250 g/ha (Setaria faberi (SETFA) [6]) | pest or weed control at 250 g/ha [7] | pest or weed control at 250 g/ha [8] | pest or weed control at 250 g/ha [9] | pest or weed control at 250 g/ha (Avena fatua (AVEFA) [10]) | pest or weed control at 1000 g/ha (Setaria faberi (SETFA) [6]) | pest or weed control at 1000 g/ha [7] | pest or weed control at 1000 g/ha [8] | pest or weed control at 1000 g/ha [9] | pest or weed control at 1000 g/ha (Avena fatua (AVEFA) [10])
Cc1cc(Br)ccc1-c1nc(C2=C(OC(=O)C(C)(C)C)[C@@H]3[C@H](C2=O)[C@H]2CC[C@@H]3O2)c(C)s1 (racemic) [Compound P7] | 100% | 100% | 0% | 100% | 100% | 100% | 100% | 0% | 100% | 100% |  |  |  |  | 
CCc1sc(-c2cc(F)c(Cl)cc2Cl)nc1C1C(=O)[C@@H]2[C@H](C1=O)[C@H]1CC[C@@H]2O1 (some centres unmarked) [Compound T47] | 100% | 90% | 0% | 90% | 80% | 100% | 100% | 0% | 100% | 100% |  |  |  |  | 
Cc1ccc(-c2nc(C3C(=O)[C@@H]4[C@H](C3=O)[C@H]3CC[C@@H]4O3)c(C)s2)cc1 (some centres unmarked) [Compound T20] | 80% | 50% | 0% | 70% | 60% | 100% | 90% | 0% | 100% | 100% |  |  |  |  | 
Cc1sc(-c2ccc(Br)cn2)nc1C1C(=O)[C@@H]2[C@H](C1=O)[C@H]1CC[C@@H]2O1 (some centres unmarked) [Compound T38] | 90% | 0% | 0% | 40% | 0% | 100% | 90% | 0% | 100% | 90% |  |  |  |  | 
Cc1cc(Br)ccc1-c1nc(C2C(=O)[C@@H]3[C@H](C2=O)[C@H]2CC[C@@H]3O2)c(C)s1 (some centres unmarked) [Compound T39] | 90% | 70% | 0% | 80% | 90% | 100% | 100% | 0% | 100% | 100% |  |  |  |  | 
Cc1sc(-c2ccc(I)cc2)nc1C1C(=O)[C@@H]2[C@H](C1=O)[C@H]1CC[C@@H]2O1 (some centres unmarked) [Compound T33] | 100% | 90% | 0% | 100% | 0% | 100% | 100% | 60% | 100% | 100% |  |  |  |  | 
Cc1sc(-c2ccc(OC(F)F)cc2Cl)nc1C1C(=O)[C@@H]2[C@H](C1=O)[C@H]1CC[C@@H]2O1 (some centres unmarked) [Compound T52] | 100% | 70% | 0% | 100% | 90% | 100% | 100% | 0% | 100% | 100% |  |  |  |  | 
Cc1sc(-c2ccc(C(C)C)cc2)nc1C1C(=O)[C@@H]2[C@H](C1=O)[C@H]1CC[C@@H]2O1 (some centres unmarked) [Compound T51] | 100% | 80% | 0% | 100% | 90% | 90% | 90% | 0% | 100% | 80% |  |  |  |  | 
CC(=O)OC1=C(c2nc(-c3ccc(Br)cn3)sc2C)C(=O)[C@H]2[C@@H]1[C@@H]1CC[C@H]2O1 (racemic) [Compound P5] | 100% | 50% | 0% | 90% | 70% | 100% | 90% | 0% | 100% | 90% |  |  |  |  | 
Cc1[se]c(-c2ccc(Cl)cc2)nc1C1C(=O)[C@@H]2[C@H](C1=O)[C@H]1CC[C@@H]2O1 (some centres unmarked) [Compound T34, 4-[2-(4-chloro-phenyl)-5-methyl-selenazol-4-yl]-10-oxa-tricyclo[5.2.1.0*2,6*]decane-3,5-dione] | 90% | 40% | 0% | 70% | 20% |  |  |  |  |  |  |  |  |  | 
CCc1sc(COc2ccc(Cl)cc2)nc1C1C(=O)[C@@H]2[C@H](C1=O)[C@H]1CC[C@@H]2O1 (some centres unmarked) [Compound T40] | 100% | 90% | 0% | 100% | 40% | 100% | 100% | 0% | 100% | 70% |  |  |  |  | 
Cc1sc(-c2cc(C(F)(F)F)n(C)n2)cc1C1C(=O)[C@@H]2[C@H](C1=O)[C@H]1CC[C@@H]2O1 (some centres unmarked) [Compound T18] |  |  |  |  |  |  |  |  |  |  | 40% | 20% | 0% | 20% | 0%
CCc1sc(-c2ccc(Cl)cc2)nc1C1=C(OC(=O)C(C)(C)C)[C@@H]2[C@H](C1=O)[C@H]1CC[C@@H]2O1 (racemic) [Compound P3] |  |  |  |  |  | 100% | 100% | 0% | 100% | 100% |  |  |  |  | 
COC(=O)c1ccc(-c2cc(C3C(=O)[C@@H]4[C@H](C3=O)[C@H]3CC[C@@H]4O3)c(C)s2)cc1 (some centres unmarked) [Compound T19] |  |  |  |  |  |  |  |  |  |  | 30% | 10% | 20% | 0% | 0%
CCc1sc(-c2ccc(Cl)cc2)cc1C1C(=O)[C@@H]2[C@H](C1=O)[C@H]1CC[C@@H]2O1 (some centres unmarked) [Compound T17, 4-[5-(4-chloro-phenyl)-2-ethyl-thiophen-3-yl]-10-oxa-tricyclo[5.2.1.0*2,6*]decane-3,5-dione] |  |  |  |  |  |  |  |  |  |  | 100% | 100% | 70% | 100% | 100%
